According to publication PMC8773328, “Antioxidative and Analgesic Effects of Naringin through Selective Inhibition of Transient Receptor Potential Vanilloid Member 1” (Antioxidants, 2021):
pIC50: −log10 of the molar value.

Tests used:
Type in all cases: cell-based
[1] = biological target: T1, Transient receptor potential vanilloid member 1 (TRPV1) (Rattus norvegicus, UniProt O35433, N628A); assay: two-electrode voltage clamp in Xenopus oocytes expressing mutant TRPV1, inhibition of capsaicin-induced current (reduced maximum inhibition); settings: read-out: Hill Equation / y = Vmin + (Vmax - Vmin) × x^n/(k^n x^n) / Value
T1 construct: Rat TRPV1 cDNA (NM_031982), N628A

[2] = biological target: T2, Transient receptor potential vanilloid member 1 (TRPV1) (Rattus norvegicus, UniProt O35433); assay: two-electrode voltage clamp in Xenopus oocytes expressing TRPV1, inhibition of capsaicin-induced current
T2 construct: Rat TRPV1 cDNA (NM_031982)

[3] = biological target: T2, Transient receptor potential vanilloid member 1 (TRPV1); assay: two-electrode voltage clamp in Xenopus oocytes expressing TRPV1, inhibition of current (reference antagonist)

T2 sequence (O35433 whole entry): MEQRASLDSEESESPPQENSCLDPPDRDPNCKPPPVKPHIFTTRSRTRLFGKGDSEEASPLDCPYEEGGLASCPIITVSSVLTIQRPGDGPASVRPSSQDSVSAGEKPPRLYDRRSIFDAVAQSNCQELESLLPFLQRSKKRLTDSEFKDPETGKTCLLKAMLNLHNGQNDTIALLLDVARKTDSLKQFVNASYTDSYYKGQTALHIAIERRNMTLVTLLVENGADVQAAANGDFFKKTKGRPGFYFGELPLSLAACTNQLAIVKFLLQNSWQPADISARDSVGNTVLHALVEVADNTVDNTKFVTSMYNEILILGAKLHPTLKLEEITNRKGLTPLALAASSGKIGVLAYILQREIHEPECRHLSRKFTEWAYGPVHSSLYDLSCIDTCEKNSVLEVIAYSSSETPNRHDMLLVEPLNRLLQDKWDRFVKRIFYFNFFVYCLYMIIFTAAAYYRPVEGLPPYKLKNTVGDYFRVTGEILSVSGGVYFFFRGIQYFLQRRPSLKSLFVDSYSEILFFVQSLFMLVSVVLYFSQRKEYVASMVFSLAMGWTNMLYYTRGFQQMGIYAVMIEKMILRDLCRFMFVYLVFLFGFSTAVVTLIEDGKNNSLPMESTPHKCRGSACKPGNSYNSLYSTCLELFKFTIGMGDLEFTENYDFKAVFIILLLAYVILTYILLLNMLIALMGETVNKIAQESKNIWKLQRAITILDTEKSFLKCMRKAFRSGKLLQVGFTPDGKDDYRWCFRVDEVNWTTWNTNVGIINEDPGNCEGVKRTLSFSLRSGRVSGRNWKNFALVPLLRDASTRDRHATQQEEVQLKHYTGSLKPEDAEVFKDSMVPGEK
T1 sequence (O35433 whole entry N628A): as the sequence (O35433 whole entry) above, with N628A counted along it

SMILES | pIC50 [1] | pIC50 [2] | pIC50 [3]
C[C@@H]1O[C@@H](O[C@H]2[C@H](Oc3cc(O)c4c(c3)O[C@H](c3ccc(O)cc3)CC4=O)O[C@H](CO)[C@@H](O)[C@@H]2O)[C@H](O)[C@H](O)[C@H]1O [naringin] | 4.62 | 4.48 | 
Oc1cc2c(cc1O)CN(C(=S)NCCc1ccc(Cl)cc1)CCC2 [capsazepine] |  |  | 5.00
